Results published in PubChem BioAssay AID256 (DTP/NCI, 2004).
Where “and” joins values, the source holds several entries; their conditions need not be identical. Equal entries are not always repeated. Inconclusive results and toxic doses are left out.

Tested on: CD2F1 mice, L1210 leukemia ip, survival T/C
Test: NCI In Vivo Anticancer Drug Screen. Data for tumor model L1210 Leukemia (intraperitoneal) in CD2F1 (CDF1) mice
Details: higher = longer survival
Method in brief: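 Compound-dosed mice with transplantable tumor versus matched vehicle controls; endpoint ratio T/C reported.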

[1] = endpoint: mean survival time, dose: 100.0 mg/kg/injection, schedule: Q01DX009 (ip), vehicle: saline with Tween-80
[2] = endpoint: mean survival time, dose: 100.0 mg/kg/injection, schedule: Q04DX003 (ip), vehicle: saline with Tween-80
[3] = endpoint: mean survival time, dose: 200.0 mg/kg/injection, schedule: Q01DX009 (ip), vehicle: saline with Tween-80
[4] = endpoint: mean survival time, dose: 200.0 mg/kg/injection, schedule: Q04DX003 (ip), vehicle: saline with Tween-80
[5] = endpoint: mean survival time, dose: 400.0 mg/kg/injection, schedule: Q01DX009 (ip), vehicle: saline with Tween-80
[6] = endpoint: mean survival time, dose: 400.0 mg/kg/injection, schedule: Q04DX003 (ip), vehicle: saline with Tween-80
[7] = endpoint: mean survival time, dose: 50.0 mg/kg/injection, schedule: Q01DX009 (ip), vehicle: saline with Tween-80

How did the T/C [1] turn out when `CN(C)c1ccc(/C=C(\C#N)c2ccc(Cl)cc2)c(Cl)c1` was run?
The T/C was 90 % of control.

And the T/C [2]?
Its T/C is 86 % of control.

What about the T/C [3] of the same molecule?
The T/C was 94 % of control.

What about the T/C [4] of the same molecule?
Its T/C is 89 % of control.

And the T/C [5]?
The T/C was 90 % of control.

And the T/C [6]?
Its T/C is 86 % of control.

With `Cc1ccc(C2=CSC3=NCCN23)cc1Cl` as the molecule, how does the T/C (endpoint: median survival time, dose: 6.25 mg/kg/injection, schedule: Q01DX005 (ip), vehicle: saline) read?
The T/C was 116 % of control.

What about the T/C (endpoint: median survival time, dose: 12.5 mg/kg/injection, schedule: Q01DX005 (ip), vehicle: saline) of the same molecule?
The T/C was 108 % of control.

What about the T/C (endpoint: median survival time, dose: 25.0 mg/kg/injection, schedule: Q01DX005 (ip), vehicle: saline) of the same molecule?
The T/C was 109 % of control.

And the T/C (endpoint: median survival time, dose: 50.0 mg/kg/injection, schedule: Q01DX005 (ip), vehicle: saline)?
The T/C was 100 % of control.

With `CC(=O)Nc1cccc(/C=C/c2cccc([N+](=O)[O-])c2)c1` as the molecule, how does the T/C (endpoint: mean survival time, dose: 100.0 mg/kg/injection, schedule: Q01DX001 (ip), vehicle: Klucel (hydroxypropylcellulose) (HPC)) read?
Its T/C is 103 % of control.

And the T/C (endpoint: mean survival time, dose: 200.0 mg/kg/injection, schedule: Q01DX001 (ip), vehicle: Klucel (hydroxypropylcellulose) (HPC))?
Its T/C is 93 % of control.

And the T/C (endpoint: mean survival time, dose: 400.0 mg/kg/injection, schedule: Q01DX001 (ip), vehicle: Klucel (hydroxypropylcellulose) (HPC))?
Its T/C is 100 % of control.

Which T/C (endpoint: mean survival time, dose: 12.5 mg/kg/injection, schedule: Q01DX009 (ip), vehicle: saline with Tween-80) does the source give for `CCOC(=O)C1(c2ccccc2)C(=O)Oc2ccccc21` (centres undefined) here?
Its T/C is 98 % of control.

What about the T/C (endpoint: mean survival time, dose: 25.0 mg/kg/injection, schedule: Q01DX009 (ip), vehicle: saline with Tween-80) of the same molecule?
Its T/C is 94 % of control and 96 % of control.

And the T/C [7]?
Its T/C is 89 % of control and 104 % of control.

And the T/C [1]?
Its T/C is 89 % of control and 93 % of control.

And the T/C [3]?
Its T/C is 89 % of control.

What about the T/C [5] of the same molecule?
Its T/C is 87 % of control and 91 % of control.

With `O=C1/C(=C\c2ccccc2)C2OCC=C3CN4CCC56c7ccccc7N1C5C2C3CC46` (centres undefined) as the molecule, how does the T/C (endpoint: mean survival time, dose: 75.0 mg/kg/injection, schedule: Q01DX001 (ip), vehicle: other) read?
Its T/C is 95 % of control.

Which results are given for `CC([O-])C(=O)[O-].NCC1CCC1CN.[Pt+4]` (centres undefined)?
T/C (endpoint: median survival time, dose: 0.78 mg/kg/injection, schedule: Q04DX003 (ip), vehicle: saline): 114 % of control; T/C (endpoint: median survival time, dose: 1.56 mg/kg/injection, schedule: Q04DX003 (ip), vehicle: saline): 120 % of control; T/C (endpoint: median survival time, dose: 3.12 mg/kg/injection, schedule: Q04DX003 (ip), vehicle: saline): 156 % of control; T/C (endpoint: median survival time, dose: 6.25 mg/kg/injection, schedule: Q04DX003 (ip), vehicle: saline): 156 % of control; T/C (endpoint: median survival time, dose: 12.5 mg/kg/injection, schedule: Q04DX003 (ip), vehicle: saline): 192 % of control and 341 % of control; T/C (endpoint: median survival time, dose: 25.0 mg/kg/injection, schedule: Q04DX003 (ip), vehicle: saline): 168 % of control and 223 % of control

`COC(CCl)(CCl)OC` was tested. Which T/C (endpoint: mean survival time, dose: 10.0 mg/kg/injection, schedule: Q01DX009 (ip), vehicle: saline with Tween-80) did it give?
The T/C was 87 % of control.

What about the T/C (endpoint: mean survival time, dose: 20.0 mg/kg/injection, schedule: Q01DX009 (ip), vehicle: saline with Tween-80) of the same molecule?
Its T/C is 90 % of control.

With `CS(=O)(=O)Nc1ccc(Nc2c3ccccc3nc3cc(Cl)ccc23)cc1` as the molecule, how does the T/C [7] read?
Its T/C is 186 % of control.

What about the T/C (endpoint: mean survival time, dose: 100.0 mg/kg/injection, schedule: Q04DX003 (ip), vehicle: saline) of the same molecule?
Its T/C is 160 % of control.

What about the T/C (endpoint: mean survival time, dose: 133.0 mg/kg/injection, schedule: Q04DX003 (ip), vehicle: saline with Tween-80) of the same molecule?
Its T/C is 114 % of control.

What about the T/C (endpoint: mean survival time, dose: 200.0 mg/kg/injection, schedule: Q04DX003 (ip), vehicle: saline) of the same molecule?
The T/C was 225 % of control.

Which results are given for `CC[C@@]1(O)C[C@H](OC2CC(N(C)C)C(OC3CC(O)C(O[C@@H]4O[C@@H](C)C(=O)C=C4N)C(C)O3)C(C)O2)c2c(cc3c(c2O)C(=O)c2c(O)ccc(O)c2C3=O)[C@H]1C(=O)OC` (some centres undefined)?
T/C (endpoint: mean survival time, dose: 0.02 mg/kg/injection, schedule: Q01DX009 (ip), vehicle: suspension in saline): 102 % of control; T/C (endpoint: mean survival time, dose: 0.05 mg/kg/injection, schedule: Q01DX009 (ip), vehicle: suspension in saline): 96 % of control; T/C (endpoint: mean survival time, dose: 0.1 mg/kg/injection, schedule: Q01DX009 (ip), vehicle: suspension in saline): 103 % of control; T/C (endpoint: mean survival time, dose: 0.2 mg/kg/injection, schedule: Q01DX009 (ip), vehicle: suspension in saline): 115 % of control; T/C (endpoint: mean survival time, dose: 0.4 mg/kg/injection, schedule: Q01DX009 (ip), vehicle: suspension in saline): 108 % of control; T/C (endpoint: mean survival time, dose: 0.8 mg/kg/injection, schedule: Q01DX009 (ip), vehicle: suspension in saline): 123 % of control; T/C (endpoint: mean survival time, dose: 1.6 mg/kg/injection, schedule: Q01DX009 (ip), vehicle: suspension in saline): 111 % of control

With `CC/C(=N/O)c1ccccc1` as the molecule, how does the T/C [1] read?
Its T/C is 98 % of control.

What about the T/C [3] of the same molecule?
The T/C was 92 % of control.

What about the T/C [5] of the same molecule?
Its T/C is 103 % of control.

With `Clc1c(Cl)c(CBr)c(Cl)c(-c2c(Cl)c(Cl)c(Cl)c(CBr)c2Cl)c1Cl` as the molecule, how does the T/C [2] read?
Its T/C is 93 % of control.

What about the T/C [4] of the same molecule?
Its T/C is 107 % of control.

And the T/C [6]?
Its T/C is 104 % of control.

`O=P(O)(O)OCC1OC(n2cnc3c(NCc4ccccc4)ncnc32)C(O)C1O` (centres undefined) was tested. Which T/C (endpoint: mean survival time, dose: 12.5 mg/kg/injection, schedule: Q01DX005 (ip), vehicle: other) did it give?
The T/C was 104 % of control.

And the T/C (endpoint: mean survival time, dose: 25.0 mg/kg/injection, schedule: Q01DX005 (ip), vehicle: other)?
Its T/C is 100 % of control.

What about the T/C (endpoint: mean survival time, dose: 50.0 mg/kg/injection, schedule: Q01DX005 (ip), vehicle: other) of the same molecule?
The T/C was 104 % of control.

What about the T/C (endpoint: mean survival time, dose: 100.0 mg/kg/injection, schedule: Q01DX005 (ip), vehicle: other) of the same molecule?
Its T/C is 117 % of control.
